Experimental data as given in ChEMBL document CHEMBL4007458, “1-ethyl-3-(6-methylphenanthridine-8-il) urea modulates TLR3/9 activation and induces selective pro-inflammatory cytokine expression in vitro” (Bioorg Med Chem Lett, 2017).
Calls of active or inactive are those of the source. The calls are words filed in the database; no cut-off is given here.

Assays:
PBMC [1] = assay: Cytotoxicity against human PBMC assessed as reduction in cell viability up to 10 uM after 24 hrs by MTT assay; format: cell-based
[2] = biological target: T1, Toll-like receptor 9 (Homo sapiens) (UniProt Q9NR96); assay: Inhibition of TLR9 in human PBMC assessed as reduction in ODN2006-stimulated IL-8 expression at 1 to 10 uM by ELISA
T1 sequence (whole entry): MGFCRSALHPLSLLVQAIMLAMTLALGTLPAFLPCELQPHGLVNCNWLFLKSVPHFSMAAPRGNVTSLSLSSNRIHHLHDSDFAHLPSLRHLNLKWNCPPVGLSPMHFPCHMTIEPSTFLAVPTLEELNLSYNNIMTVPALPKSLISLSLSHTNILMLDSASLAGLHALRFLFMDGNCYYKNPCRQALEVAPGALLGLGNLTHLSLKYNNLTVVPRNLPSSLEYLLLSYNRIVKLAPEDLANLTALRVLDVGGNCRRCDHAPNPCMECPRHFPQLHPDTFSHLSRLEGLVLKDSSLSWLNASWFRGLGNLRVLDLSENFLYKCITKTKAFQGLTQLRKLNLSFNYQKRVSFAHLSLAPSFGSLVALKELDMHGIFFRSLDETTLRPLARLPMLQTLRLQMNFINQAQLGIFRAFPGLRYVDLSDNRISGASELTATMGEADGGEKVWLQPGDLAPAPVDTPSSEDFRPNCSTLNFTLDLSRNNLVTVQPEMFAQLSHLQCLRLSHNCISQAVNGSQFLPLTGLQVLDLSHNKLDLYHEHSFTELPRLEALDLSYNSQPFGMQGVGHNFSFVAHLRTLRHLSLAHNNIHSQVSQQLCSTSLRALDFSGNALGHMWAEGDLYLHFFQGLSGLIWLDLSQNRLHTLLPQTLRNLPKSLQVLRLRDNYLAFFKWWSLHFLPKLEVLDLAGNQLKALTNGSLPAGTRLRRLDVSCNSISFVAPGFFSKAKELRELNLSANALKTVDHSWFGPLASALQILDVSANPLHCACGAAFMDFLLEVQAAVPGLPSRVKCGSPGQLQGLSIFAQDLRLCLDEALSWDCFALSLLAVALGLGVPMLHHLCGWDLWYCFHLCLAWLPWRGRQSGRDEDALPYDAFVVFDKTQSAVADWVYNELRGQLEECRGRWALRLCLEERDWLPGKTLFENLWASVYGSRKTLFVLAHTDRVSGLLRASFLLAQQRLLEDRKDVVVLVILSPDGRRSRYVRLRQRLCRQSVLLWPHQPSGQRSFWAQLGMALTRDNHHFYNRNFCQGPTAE

[3] = biological target: T1, Toll-like receptor 9 (Homo sapiens); assay: Inhibition of TLR9 in human PBMC assessed as reduction in ODN2216-stimulated IFNalpha expression at 1 to 10 uM by ELISA
THP-1 = assay: Cytotoxicity against human THP1 cells assessed as reduction in cell viability up to 10 uM after 24 hrs by MTT assay; format: cell-based; details: thp-1, 24 h
[4] = biological target: T1, Toll-like receptor 9 (Homo sapiens); assay: Inhibition of human TLR9 activation expressed in HEK293 cells assessed as reduction in ODN2006-induced NF-kB activation up to 5 uM after 18 hrs by luciferase reporter gene assay; format: cell-based
[5] = biological target: T2, Toll-like receptor 8 (Homo sapiens) (UniProt Q9NR97); assay: Activation of human TLR8 expressed in HEK293 cells assessed as induction of NF-kB at 0.1 to 5 uM after 18 hrs by luciferase reporter gene assay; format: cell-based
T2 sequence (whole entry): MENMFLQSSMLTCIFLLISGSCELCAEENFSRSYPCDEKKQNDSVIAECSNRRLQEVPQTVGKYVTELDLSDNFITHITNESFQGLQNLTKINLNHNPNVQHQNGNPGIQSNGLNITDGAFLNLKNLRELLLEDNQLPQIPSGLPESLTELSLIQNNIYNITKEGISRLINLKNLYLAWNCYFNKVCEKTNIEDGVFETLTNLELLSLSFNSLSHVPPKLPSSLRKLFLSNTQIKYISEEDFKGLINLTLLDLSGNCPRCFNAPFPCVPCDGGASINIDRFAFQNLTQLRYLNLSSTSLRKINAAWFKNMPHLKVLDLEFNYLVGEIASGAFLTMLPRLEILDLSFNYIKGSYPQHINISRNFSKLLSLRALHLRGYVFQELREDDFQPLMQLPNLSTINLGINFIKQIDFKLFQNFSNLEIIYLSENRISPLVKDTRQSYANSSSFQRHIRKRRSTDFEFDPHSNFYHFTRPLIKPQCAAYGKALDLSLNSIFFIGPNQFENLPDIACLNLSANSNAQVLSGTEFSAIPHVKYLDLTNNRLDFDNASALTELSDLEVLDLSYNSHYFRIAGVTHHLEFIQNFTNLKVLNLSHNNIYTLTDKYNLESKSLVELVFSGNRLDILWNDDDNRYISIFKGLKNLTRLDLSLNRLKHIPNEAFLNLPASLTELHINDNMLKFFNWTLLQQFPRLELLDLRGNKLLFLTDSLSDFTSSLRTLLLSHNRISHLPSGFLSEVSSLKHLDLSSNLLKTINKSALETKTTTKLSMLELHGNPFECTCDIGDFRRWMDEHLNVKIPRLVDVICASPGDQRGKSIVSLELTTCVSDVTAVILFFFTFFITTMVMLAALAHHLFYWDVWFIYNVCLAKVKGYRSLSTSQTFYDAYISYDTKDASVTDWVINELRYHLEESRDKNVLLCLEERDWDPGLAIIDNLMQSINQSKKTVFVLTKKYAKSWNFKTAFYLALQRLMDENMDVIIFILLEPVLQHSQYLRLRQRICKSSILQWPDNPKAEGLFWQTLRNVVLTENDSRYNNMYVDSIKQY

[6] = biological target: T3, Toll-like receptor 7 (Homo sapiens) (UniProt Q9NYK1); assay: Activation of human TLR7 expressed in HEK293 cells assessed as induction of NF-kB at 0.1 to 5 uM after 18 hrs by luciferase reporter gene assay; format: cell-based
T3 sequence (whole entry): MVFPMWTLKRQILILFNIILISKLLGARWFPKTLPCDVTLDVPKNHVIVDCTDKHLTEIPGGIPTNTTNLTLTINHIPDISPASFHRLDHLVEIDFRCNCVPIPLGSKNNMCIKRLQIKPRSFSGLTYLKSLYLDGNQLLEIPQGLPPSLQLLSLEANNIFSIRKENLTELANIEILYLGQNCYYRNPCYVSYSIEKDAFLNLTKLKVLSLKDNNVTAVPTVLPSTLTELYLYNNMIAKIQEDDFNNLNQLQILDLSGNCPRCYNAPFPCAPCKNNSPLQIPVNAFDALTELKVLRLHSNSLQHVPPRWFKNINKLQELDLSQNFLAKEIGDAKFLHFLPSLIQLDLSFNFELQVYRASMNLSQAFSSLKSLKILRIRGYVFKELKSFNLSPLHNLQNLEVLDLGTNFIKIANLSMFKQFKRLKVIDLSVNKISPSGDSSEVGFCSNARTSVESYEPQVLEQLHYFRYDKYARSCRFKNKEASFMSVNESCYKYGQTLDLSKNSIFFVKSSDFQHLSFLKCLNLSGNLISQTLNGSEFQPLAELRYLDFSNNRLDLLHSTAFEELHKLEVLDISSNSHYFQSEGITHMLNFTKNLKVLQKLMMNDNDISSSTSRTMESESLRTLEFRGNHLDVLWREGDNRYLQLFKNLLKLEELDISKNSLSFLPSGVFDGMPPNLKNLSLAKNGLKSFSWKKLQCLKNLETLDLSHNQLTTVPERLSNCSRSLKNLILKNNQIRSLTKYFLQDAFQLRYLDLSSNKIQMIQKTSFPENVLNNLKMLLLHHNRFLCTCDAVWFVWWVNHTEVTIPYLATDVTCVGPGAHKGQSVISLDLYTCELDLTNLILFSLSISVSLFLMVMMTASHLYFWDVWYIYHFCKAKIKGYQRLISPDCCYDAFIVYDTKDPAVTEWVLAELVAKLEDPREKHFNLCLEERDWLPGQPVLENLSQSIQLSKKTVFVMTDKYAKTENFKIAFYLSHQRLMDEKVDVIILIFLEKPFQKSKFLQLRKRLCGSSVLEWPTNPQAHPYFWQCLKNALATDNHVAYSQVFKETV

[7] = biological target: Toll-like receptor 3 (Homo sapiens) (UniProt O15455); assay: Inhibition of TLR3 in human PBMC assessed as reduction in poly(I:C)-stimulated IL-6 expression at 1 uM by ELISA relative to control
[8] = Binding affinity to synthetic ODN2216 at 0.01 mol/dm3 at pH 5.7 by fluorescence spectroscopic method
[9] = Binding affinity to synthetic ODN2006 assessed as ratio of fluorescence intensity of compound-ODN complex to fluorescence intensity of compound at 0.01 mol/dm3 at pH 5.7 by fluorescence spectroscopic method
[10] = biological target: Toll-like receptor 3 (Homo sapiens) (UniProt O15455); assay: Inhibition of human TLR3 expressed in HEK293 cells assessed as reduction in poly(I:C)-induced NF-kB activation up to 5 uM after 18 hrs by luciferase reporter gene assay; format: cell-based
PBMC [11] = assay: Immunomodulatory activity in human PBMC assessed as induction of IL-1beta secretion at 10 uM after 24 hrs by ELISA; format: functional, cell-based
[12] = Binding affinity to synthetic ODN2216 assessed as ratio of fluorescence intensity of compound-ODN complex to fluorescence intensity of compound at 0.01 mol/dm3 at pH 5.7 by fluorescence spectroscopic method
[13] = Solubility of the compound in water; format: physicochemical; details: buffer
[14] = biological target: T1, Toll-like receptor 9 (Homo sapiens); assay: Inhibition of TLR9 in PMA-induc ed human THP1 cells assessed as reduction in ODN2216-induced TNFalpha by ELISA
[15] = biological target: Toll-like receptor 3 (Homo sapiens) (UniProt O15455); assay: Inhibition of TLR3 in human PBMC assessed as reduction in poly(I:C)-stimulated IL-6 expression at 1 to 10 uM by ELISA relative to control
[16] = Binding affinity to synthetic ODN2216 assessed as negative ICD band around 240 to 340 nm at 3 x 10^5 10^-6mol/dm3 at pH 7 by CD spectroscopic method
[17] = Binding affinity to synthetic ODN2006 assessed as ICD band around 300 nm at 3 x 10^5 10^-6mol/dm3 at pH 5.7 by CD spectroscopic method
[18] = Binding affinity to synthetic ODN2006 at 0.01 mol/dm3 at pH 7 by fluorescence spectroscopic method
[19] = Binding affinity to synthetic ODN2006 assessed as ratio of fluorescence intensity of compound-ODN complex to fluorescence intensity of compound at 0.01 mol/dm3 at pH 7 by fluorescence spectroscopic method
[20] = Binding affinity to synthetic ODN2006 at 0.01 mol/dm3 at pH 5.7 by fluorescence spectroscopic method
PBMC [21] = assay: Immunomodulatory activity in human PBMC assessed as induction of INFalpha secretion at 10 uM after 24 hrs by ELISA; format: functional, cell-based
PBMC [22] = assay: Immunomodulatory activity in human PBMC assessed as induction of TNFalpha secretion at 10 uM after 24 hrs by ELISA; format: functional, cell-based
PBMC [23] = assay: Immunomodulatory activity in human PBMC assessed as induction of IL-6 secretion at 10 uM after 24 hrs by ELISA; format: functional, cell-based
[24] = Binding affinity to synthetic ODN2216 assessed as negative ICD band around 240 to 340 nm at 3 x 10^5 10^-6mol/dm3 at pH 5.7 by CD spectroscopic method
[25] = Binding affinity to synthetic ODN2006 assessed as ICD band around 301 nm at 3 x 10^5 10^-6mol/dm3 at pH 7 by CD spectroscopic method
PBMC [26] = assay: Immunomodulatory activity in human PBMC assessed as induction of IL-8 secretion after 24 hrs by ELISA; format: functional, cell-based
HEK293 = assay: Cytotoxicity against HEK293 cells assessed as reduction in cell viability up to 10 uM after 24 hrs by MTT assay; format: cell-based; details: human, hek293, 24 h
PBMC [27] = assay: Immunomodulatory activity in human PBMC assessed as induction of IL-6 secretion at 16 uM after 24 hrs by ELISA; format: functional, cell-based
PBMC [28] = assay: Immunomodulatory activity in human PBMC assessed as induction of IL-6 secretion at 5 uM after 24 hrs by ELISA; format: functional, cell-based
[29] = biological target: T2, Toll-like receptor 8 (Homo sapiens); assay: Activation of human TLR8 expressed in HEK293 cells assessed as induction of NF-kB after 18 hrs by luciferase reporter gene assay; format: cell-based
[30] = biological target: T3, Toll-like receptor 7 (Homo sapiens); assay: Activation of human TLR7 expressed in HEK293 cell assessed as induction of NF-kB after 18 hrs by luciferase reporter gene assay; format: cell-based

Chain of Toll-like receptor 3 (Homo sapiens) (O15455 whole entry): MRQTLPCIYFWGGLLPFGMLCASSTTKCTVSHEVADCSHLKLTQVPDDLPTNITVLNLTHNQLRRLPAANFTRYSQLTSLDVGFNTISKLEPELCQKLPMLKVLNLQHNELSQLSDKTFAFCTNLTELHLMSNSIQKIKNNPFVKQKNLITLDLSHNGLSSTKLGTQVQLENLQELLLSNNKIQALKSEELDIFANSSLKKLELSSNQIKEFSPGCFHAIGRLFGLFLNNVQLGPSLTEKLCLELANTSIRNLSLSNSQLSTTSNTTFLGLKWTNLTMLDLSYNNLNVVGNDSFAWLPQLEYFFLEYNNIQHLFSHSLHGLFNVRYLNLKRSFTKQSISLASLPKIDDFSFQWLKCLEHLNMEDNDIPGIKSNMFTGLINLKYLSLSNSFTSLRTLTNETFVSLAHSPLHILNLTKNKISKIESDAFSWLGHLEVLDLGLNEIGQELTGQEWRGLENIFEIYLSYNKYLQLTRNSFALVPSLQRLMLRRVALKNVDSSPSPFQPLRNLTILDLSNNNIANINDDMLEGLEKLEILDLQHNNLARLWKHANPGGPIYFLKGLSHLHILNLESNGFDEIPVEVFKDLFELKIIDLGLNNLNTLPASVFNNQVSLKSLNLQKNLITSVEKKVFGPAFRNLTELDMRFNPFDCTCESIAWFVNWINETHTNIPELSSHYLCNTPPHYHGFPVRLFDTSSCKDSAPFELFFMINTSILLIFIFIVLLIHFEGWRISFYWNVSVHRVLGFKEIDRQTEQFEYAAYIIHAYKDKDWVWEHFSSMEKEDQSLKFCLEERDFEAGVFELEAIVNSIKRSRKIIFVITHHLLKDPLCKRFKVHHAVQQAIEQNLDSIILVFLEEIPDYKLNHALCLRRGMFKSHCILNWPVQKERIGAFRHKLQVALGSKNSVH

CCNC(=O)Nc1ccc2c(c1)c(C)nc1ccccc12
Activity (PBMC [1]): Non-Toxic
inhibition [2]: inactive
inhibition [3]: Active
Activity (THP-1): Non-Toxic
inhibition [4]: Active
Activity [5]: inactive
Activity [6]: inactive
inhibition [7]: 50%
log Ks [8]: 4.04
Ratio [9]: 0.2
inhibition [10]: Active
Activity (PBMC [11]): inactive
Ratio [12]: 0.73
solubility [13]: Insoluble
inhibition [14]: Dose-dependent effect
inhibition [15]: Active
Activity [16]: Active
Activity [17]: inactive
log Ks [18]: 5.4
Ratio [19]: 0.6
log Ks [20]: 4.5
Activity (PBMC [21]): inactive
Activity (PBMC [22]): Active
Activity (PBMC [23]): Active
Activity [24]: Active
Activity [25]: Active
Activity (PBMC [26]): Dose-dependent effect
Activity (HEK293): Non-Toxic

CCOCc1nc2c(N)nc3ccccc3c2n1CC(C)(C)O
Activity (PBMC [27]): Active

CC(C)Cn1cnc2c(N)nc3ccccc3c21
Activity (PBMC [28]): Active

CCOCc1nc2c(N)nc3ccccc3c2[nH]1
Activity [29]: Active
Activity [30]: Active
